Data from PubChem BioAssay (NCI).
Several values for one entry are separate records, joined by “and”; a condition that tells them apart may be missing. Equal entries are not always repeated.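 How tested: cells in 96-well plates exposed to compound for 48 hours at five concentrations. GI50 marks 50% less growth. TGI: concentration producing complete growth inhibition.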

Experiments:
Assay in all cases: NCI tumour cell line growth inhibition, 48 h
COLO 205 colon = tested on: COLO 205 colon
SF-268 CNS = tested on: SF-268 CNS
OVCAR-8 ovarian = tested on: OVCAR-8 ovarian
HOP-92 NSCLC = tested on: HOP-92 NSCLC
A498 renal = tested on: A498 renal
RPMI-8226 leukemia = tested on: RPMI-8226 leukemia
PC-3 prostate = tested on: PC-3 prostate
HL-60(TB) leukemia = tested on: HL-60(TB) leukemia
NCI/ADR-RES ovarian = tested on: NCI/ADR-RES ovarian
NCI-H522 lung = tested on: NCI-H522 lung

Compound	GI50 (COLO 205 colon)	TGI (COLO 205 colon)	GI50 (SF-268 CNS)	TGI (SF-268 CNS)	GI50 (OVCAR-8 ovarian)	TGI (OVCAR-8 ovarian)	GI50 (HOP-92 NSCLC)	TGI (HOP-92 NSCLC)	GI50 (A498 renal)	TGI (A498 renal)	GI50 (RPMI-8226 leukemia)	TGI (RPMI-8226 leukemia)	GI50 (PC-3 prostate)	TGI (PC-3 prostate)	GI50 (HL-60(TB) leukemia)	TGI (HL-60(TB) leukemia)	GI50 (NCI/ADR-RES ovarian)	TGI (NCI/ADR-RES ovarian)	GI50 (NCI-H522 lung)	TGI (NCI-H522 lung)
NS(=O)(=O)c1cccc(N=Cc2c(O)[nH]c3ccccc23)c1	> 25 µM	> 25 µM	> 25 µM	> 25 µM	> 25 µM	> 25 µM	> 25 µM	> 25 µM	> 25 µM	> 25 µM	> 25 µM	> 25 µM	> 25 µM	> 25 µM	> 25 µM	> 25 µM	> 25 µM	> 25 µM	24.4 µM	> 25 µM
c1cn2cc(-c3ccc4cn[nH]c4c3)nc(Nc3ccc(N4CCOCC4)cc3)c2n1	41.3 µM	> 100 µM	5.11 µM	27.4 µM	4.87 µM	21.8 µM	15.6 µM	33.8 µM	11.9 µM	36.2 µM	18.5 µM	86.6 µM	14.7 µM	35.4 µM	> 100 µM	> 100 µM	11.1 µM	32.4 µM	12.3 µM	39 µM
COc1cccc(/C=C/c2cnc3ccccc3n2)c1OC	–	> 100 µM	–	> 100 µM	–	> 100 µM	–	88.2 µM	–	> 100 µM	–	> 100 µM	–	> 100 µM	–	> 100 µM	–	60.1 µM	–	53.5 µM
CCN1c2ccccc2C(Cl)(c2ccc(N(C)C)cc2)c2ccccc21	2.31 µM	7.73 µM	5.61 µM	19.3 µM	–	–	2.84 µM	17 µM	59.6 µM	> 100 µM	1.07 µM	4.04 µM	2.18 µM	9.88 µM	1.89 µM	4.7 µM	13.3 µM	44.6 µM	–	–
Cc1cc(Cc2cc(C)cc(C(C)(C)C)c2O)c(O)c(C(C)(C)C)c1	6.73 µM	19.6 µM	5.06 µM	17.3 µM	5.17 µM	16.4 µM	4.37 µM	16 µM	12.9 µM	25.5 µM	7.55 µM	57.2 µM	5.15 µM	18.6 µM	10.5 µM	> 100 µM	10.1 µM	21.8 µM	4.16 µM	14.6 µM
c1ccc(-n2nnnc2-c2cccc3ccccc23)cc1	0.49 µM	3.83 µM	0.833 µM	> 73.1 µM	1.48 µM	> 100 µM	1.19 µM	24.3 µM	0.704 µM	> 55.3 µM	0.579 µM	45.7 µM	1.14 µM	> 100 µM	0.365 µM	1.7 µM	0.279 µM	1.61 µM	0.272 µM	2.71 µM
CSc1ccc2c3c(n(C[C@H](O)CO)c(=O)c2c1)-c1ccccc1C3=O	2.94 µM	21.1 µM	4.64 µM	> 100 µM	2.21 µM	20.9 µM	12.9 µM	93.9 µM	2.57 µM	12.6 µM	1.62 µM	4.86 µM	3.42 µM	> 100 µM	1.81 µM	11.7 µM	4.44 µM	49.9 µM	2 µM	25.5 µM
N#CC1=C(N)NC(=O)NC12Nc1ccccc1S2 (stereo unspecified)	15.8 µM	> 73.1 µM	23.6 µM	70.8 µM	6.07 µM	> 37.8 µM	91.3 µM	> 100 µM	16.5 µM	36.8 µM	> 37 µM	> 55.7 µM	28 µM	> 57.9 µM	34.5 µM	> 100 µM	24.7 µM	> 68.8 µM	28.2 µM	> 71.4 µM
COc1cc(/C=C2\CCC(CN(C)C)C2=O)ccc1OC(=O)c1ccccc1 (stereo unspecified)	–	24.8 µM	–	27.5 µM	–	22 µM	–	32.6 µM	–	33.1 µM	–	9.3 µM	–	30 µM	–	8.71 µM	–	48.7 µM	–	10.4 µM
NC1=NC(c2ccc(Cl)cc2)C2=C(N1)/C(=C/c1ccc(Cl)cc1)CCC2 (stereo unspecified)	6.17 µM	19.9 µM	7.35 µM	> 38.9 µM	4.24 µM	> 32.4 µM	14.2 µM	40.5 µM	2.67 µM	12.6 µM	2.36 µM	6.15 µM	7.82 µM	56.3 µM	12.3 µM	45.8 µM	12.2 µM	> 100 µM	15.7 µM	36.9 µM
COc1ccc(-n2c3c(c4c(CN5CCOCC5)c(O)ccc42)CCc2ccccc2C3=O)cc1	> 100 µM	> 100 µM	> 100 µM	> 100 µM	64.4 µM	> 100 µM	59.5 µM	> 100 µM	> 100 µM	> 100 µM	24.4 µM	> 100 µM	16.9 µM	> 100 µM	22.3 µM	> 100 µM	25 µM	88.9 µM	7.28 µM	63.2 µM
Cc1ccc2c(O)c(O)cc(NC(C)CCCN)c2n1 (stereo unspecified)	3.39 µM	42.5 µM	16.7 µM	66.2 µM	4.35 µM	> 100 µM	57.5 µM	> 100 µM	> 100 µM	> 100 µM	8.89 µM	> 53.2 µM	22.9 µM	> 66.5 µM	10.7 µM	37.8 µM	> 66.9 µM	> 100 µM	3.15 µM	9.87 µM
CO[C@@H]1CC(=O)C2(CC(=O)O[C@@H]2/C=C(\C)CCC=C(C)C)C[C@@H]1O (stereo partly specified)	1.07 µM	2.11 µM	1.18 µM	4.74 µM	1.32 µM	> 10.5 µM	0.84 µM	2.97 µM	1.66 µM	4.63 µM	0.118 µM	0.432 µM	0.378 µM	1.44 µM	0.409 µM	2.32 µM	0.487 µM	1.51 µM	1.82 µM	> 50 µM
COc1ccc(/C=C/C(=O)Oc2cc(O)cc(O)c2)cc1	–	> 100 µM	–	86.5 µM	–	> 100 µM	–	> 100 µM	–	> 100 µM	–	42.4 µM	–	> 100 µM	–	55.5 µM	–	> 100 µM	–	> 100 µM
CCCCCCCCCCCCSC(=N)N	1.98 µM	3.72 µM	7.82 µM	25.8 µM	5.77 µM	23.4 µM	–	–	15.3 µM	31.4 µM	2.94 µM	10.2 µM	9.13 µM	23 µM	2.02 µM	4.27 µM	10.5 µM	26.3 µM	5.21 µM	21.6 µM
C=CCC1(O)c2cccc(NCCO)c2C(=O)c2c(NCCO)cccc21	> 100 µM	> 100 µM	> 100 µM	> 100 µM	> 100 µM	> 100 µM	80.7 µM	> 100 µM	> 100 µM	> 100 µM	> 100 µM	> 100 µM	> 100 µM	> 100 µM	> 100 µM	> 100 µM	> 100 µM	> 100 µM	> 100 µM	> 100 µM
COc1ccc2c(c1)C(=O)/C(=C/c1ncc([N+](=O)[O-])n1C)O2	1.07 µM	3.9 µM	0.421 µM	2.1 µM	0.261 µM	2.81 µM	1.23 µM	4.51 µM	1.42 µM	2.98 µM	0.416 µM	2.06 µM	1.25 µM	5.46 µM	0.263 µM	1.37 µM	0.391 µM	6.47 µM	0.192 µM	0.449 µM
O=c1[nH]cnc2[nH]ncc12	440 µM	> 5000 µM	> 5000 µM	> 5000 µM	214 µM	> 5000 µM	163 µM	> 3250 µM	532 µM	> 5000 µM	116 µM	> 5000 µM	253 µM	> 5000 µM	> 79.9 µM and 108 µM	> 3420 µM	214 µM	> 1250 µM	> 84.4 µM and 272 µM	> 5000 µM
C#Cc1c(C(N)=O)ncn1C1OC(COP(=O)(OCc2ccc([N+](=O)[O-])o2)N(C)CCCCCl)C(O)C1O (stereo unspecified)	5.5 µM	88.2 µM	45.1 µM	> 100 µM	9.91 µM	> 100 µM	51.2 µM	> 100 µM	39.6 µM	> 100 µM	0.0113 µM	> 100 µM	53.5 µM	> 100 µM	> 100 µM	> 100 µM	15.1 µM	> 100 µM	3.78 µM	88.1 µM
O=C(c1ccco1)c1c(C(F)(F)F)n([O-])c2ccccc2[n+]1=O	3.32 µM	28.5 µM	0.515 µM	2.56 µM	1.23 µM	22.5 µM	0.144 µM	0.986 µM	1.57 µM	8.27 µM	0.227 µM	1.27 µM	0.338 µM	3.61 µM	0.175 µM	1.42 µM	0.879 µM	12.7 µM	0.468 µM	1.98 µM
CC(=O)OC1CC2(O)C3CCC4CC(O)CCC4(C)C3CCC2(C)C1C1=CC(=O)OC1 (stereo unspecified)	–	0.76 µM	–	0.15 µM	–	0.272 µM	–	19.3 µM	–	0.392 µM	–	0.445 µM	–	0.373 µM	–	0.237 µM	–	0.298 µM	–	0.185 µM
COc1ccc(C(=O)c2cc3c(OC)c(OC)c(OC)cc3[nH]2)cc1	3.45 µM	> 100 µM	68.1 µM	> 100 µM	33.7 µM	> 100 µM	9.24 µM	> 100 µM	6.45 µM	47.7 µM	2.81 µM	8.13 µM	> 100 µM	> 100 µM	2.24 µM	61.8 µM	3.2 µM	40.9 µM	1.55 µM	6.04 µM
Cc1cc(Nc2ncnc3ccc(NC4=NC(C)(C)CO4)cc23)ccc1Oc1ccn2ncnc2c1	14.3 µM and > 10 µM	32.3 µM and > 10 µM	18.9 µM and > 10 µM	> 91.9 µM	8.75 µM and > 10 µM	55.1 µM and > 10 µM	3.69 µM and 4.24 µM	26.9 µM and > 10 µM	4.1 µM and > 10 µM	24.8 µM and > 10 µM	9.87 µM and 6.82 µM	33.5 µM and > 10 µM	15.7 µM and > 10 µM	66.6 µM and > 10 µM	21 µM and > 10 µM	46.1 µM and > 10 µM	17.1 µM and > 10 µM	89.2 µM and > 10 µM	2.44 µM and > 10 µM	21.1 µM and > 10 µM
COc1ccc2nc3cc(Cl)ccc3c(NCCCNCCC(C)O)c2c1 (stereo unspecified)	0.217 µM	1.29 µM	0.523 µM	2.52 µM	0.426 µM	2.54 µM	0.535 µM	2.76 µM	0.42 µM	1.54 µM	0.575 µM	3.09 µM	0.496 µM	2.35 µM	1.65 µM	3.92 µM	2.46 µM	15.5 µM	0.196 µM	0.75 µM
C=CC1CC12C(=O)C1OC2(C)C2C(=O)c3c(O)ccc(O)c3C(=O)C12 (stereo unspecified)	1.52 µM	17 µM	2.8 µM	9.58 µM	6.24 µM	20.2 µM	2.69 µM	6.59 µM	3.89 µM	13.4 µM	0.423 µM	–	4.72 µM	15.3 µM	1.19 µM	3.79 µM	3.76 µM	12.1 µM	6.23 µM	16.8 µM
CC(=O)O/N=C1/C(c2c(O)[nH]c3cc(Br)ccc23)=Nc2ccccc21	1.57 µM	3 µM	1.62 µM	3.78 µM	1.59 µM	4.53 µM	1.93 µM	5.35 µM	0.429 µM	1.2 µM	2.03 µM	5.27 µM	1.33 µM	3.51 µM	1.88 µM	4.37 µM	1.73 µM	4.59 µM	1.56 µM	3.68 µM
O=C(N/N=C/c1ccccc1O)C(=O)Nc1ccc(F)cc1	3.28 µM	> 100 µM	2.77 µM	> 100 µM	4.3 µM	> 100 µM	–	–	83.4 µM	> 100 µM	7.9 µM	> 100 µM	4.21 µM	> 100 µM	2.02 µM	8.75 µM	3 µM	> 100 µM	3.01 µM	52 µM
